Results as given in PubChem BioAssay (NCI).
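These data come from cells grown in 96-well plates and exposed to compound for 48 hours at five concentrations. Abbreviation: GI50, concentration required for 50% inhibition of growth. TGI: concentration producing complete growth inhibition.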

Columns and labels:
Test in all cases: DTP human tumour cell line panel, 48 h
HCT-15 colon = system: HCT-15 colon
HOP-92 NSCLC = system: HOP-92 NSCLC
EKVX NSCLC = system: EKVX NSCLC
HCT-116 colon = system: HCT-116 colon
SN12C renal = system: SN12C renal
A549 NSCLC = system: A549 NSCLC
BT-549 breast = system: BT-549 breast
CCRF-CEM leukemia = system: CCRF-CEM leukemia
SNB-75 CNS = system: SNB-75 CNS
SF-268 CNS = system: SF-268 CNS

## O=C(Oc1ccc([N+](=O)[O-])cc1)N1CCN(Cc2cccc(Oc3ccccc3)c2)CC1
HCT-15 colon
  GI50: > 100 µM
  TGI: > 100 µM
HOP-92 NSCLC
  GI50: 18.2 µM
  TGI: > 100 µM
EKVX NSCLC
  GI50: 48.6 µM
  TGI: > 100 µM
HCT-116 colon
  GI50: 44.9 µM
  TGI: > 100 µM
SN12C renal
  GI50: > 100 µM
  TGI: > 100 µM
A549 NSCLC
  GI50: > 73.6 µM
  TGI: > 100 µM
BT-549 breast
  GI50: 52 µM
  TGI: > 100 µM
CCRF-CEM leukemia
  GI50: 40.5 µM
  TGI: > 100 µM
SNB-75 CNS
  GI50: > 100 µM
  TGI: > 100 µM
SF-268 CNS
  GI50: > 100 µM
  TGI: > 100 µM

## Cc1cc(=O)oc2cc(OC(=O)Nc3ccc(Cl)c(Cl)c3)ccc12
HCT-15 colon
  TGI: > 100 µM
HOP-92 NSCLC
  TGI: 43.4 µM
EKVX NSCLC
  TGI: 85.2 µM
HCT-116 colon
  TGI: 40.7 µM
SN12C renal
  TGI: 70.9 µM
A549 NSCLC
  TGI: 82.1 µM
BT-549 breast
  TGI: 61.5 µM
CCRF-CEM leukemia
  TGI: 51.6 µM
SNB-75 CNS
  TGI: 67.3 µM
SF-268 CNS
  TGI: > 100 µM

## Cc1cc(S(=O)(=O)Nc2nc3ccsc3c(=O)n2Cc2ccco2)c(S)cc1Cl
HCT-15 colon
  GI50: > 100 µM
  TGI: > 100 µM
HOP-92 NSCLC
  GI50: > 100 µM
  TGI: > 100 µM
EKVX NSCLC
  GI50: > 100 µM
  TGI: > 100 µM
HCT-116 colon
  GI50: > 100 µM
  TGI: > 100 µM
SN12C renal
  GI50: > 100 µM
  TGI: > 100 µM
A549 NSCLC
  GI50: > 100 µM
  TGI: > 100 µM
BT-549 breast
  GI50: > 100 µM
  TGI: > 100 µM
CCRF-CEM leukemia
  GI50: 50.7 µM
  TGI: > 100 µM
SNB-75 CNS
  GI50: > 100 µM
  TGI: > 100 µM
SF-268 CNS
  GI50: 99 µM
  TGI: > 100 µM

## O=S(=O)(NC(=S)Nc1ccccc1)c1ccc(N2N=C3c4ccccc4CC3C2c2cccs2)cc1 (stereo not given)
HCT-15 colon
  GI50: 22.6 µM
  TGI: 63.5 µM
HOP-92 NSCLC
  GI50: 24.9 µM
  TGI: 71.7 µM
EKVX NSCLC
  GI50: 19.5 µM
  TGI: 54.4 µM
HCT-116 colon
  GI50: 15.1 µM
  TGI: 34.8 µM
SN12C renal
  GI50: 21.4 µM
  TGI: 43.2 µM
A549 NSCLC
  GI50: 15.7 µM
  TGI: > 100 µM
BT-549 breast
  GI50: 24.6 µM
  TGI: 66.2 µM
CCRF-CEM leukemia
  GI50: 30.5 µM
  TGI: 85.9 µM
SNB-75 CNS
  GI50: 71.9 µM
  TGI: > 100 µM
SF-268 CNS
  GI50: 30.7 µM
  TGI: > 100 µM

## CS(=O)(=O)N1CCN(Cc2cc3nc(-c4cccc5[nH]ncc45)nc(N4CCOCC4)c3s2)CC1 (tested in a mixture with another compound)
HCT-15 colon
  GI50: 0.207 µM
  TGI: > 100 µM
HOP-92 NSCLC
  GI50: 0.114 µM
  TGI: 0.829 µM
EKVX NSCLC
  GI50: 0.087 µM
HCT-116 colon
  GI50: 0.149 µM
SN12C renal
  GI50: 0.0898 µM
A549 NSCLC
  GI50: 0.0213 µM
  TGI: 0.0487 µM
BT-549 breast
  GI50: 0.0316 µM
  TGI: 0.102 µM
CCRF-CEM leukemia
  GI50: 0.272 µM
SNB-75 CNS
  GI50: 0.021 µM
  TGI: 0.164 µM
SF-268 CNS
  GI50: 0.152 µM

## O=C1C=CC(=O)C1(Br)Br
HCT-15 colon
  TGI: 17.3 µM
HOP-92 NSCLC
  TGI: 40.9 µM
EKVX NSCLC
  TGI: 29.7 µM
HCT-116 colon
  TGI: 20.9 µM
SN12C renal
  TGI: 21.4 µM
A549 NSCLC
  TGI: 31.7 µM
BT-549 breast
  TGI: 24.9 µM
CCRF-CEM leukemia
  TGI: 26.6 µM
SNB-75 CNS
  TGI: 24.5 µM
SF-268 CNS
  TGI: 37.9 µM

## COc1ncc(-c2nc3c(n2C(C)C)[C@H](c2ccc(Cl)cc2)N(c2cc(Cl)cn(C)c2=O)C3=O)c(OC)n1
HCT-15 colon
  GI50: 34.5 µM
  TGI: > 100 µM
HOP-92 NSCLC
  GI50: 3.28 µM
  TGI: 52.6 µM
EKVX NSCLC
  GI50: 36.6 µM
  TGI: > 100 µM
HCT-116 colon
  GI50: 22 µM
  TGI: > 100 µM
SN12C renal
  GI50: 49.8 µM
  TGI: > 100 µM
A549 NSCLC
  GI50: 17.9 µM
  TGI: > 100 µM
BT-549 breast
  GI50: 36.7 µM
  TGI: > 100 µM
CCRF-CEM leukemia
  GI50: 30.9 µM
  TGI: > 100 µM
SNB-75 CNS
  GI50: 30 µM
  TGI: > 100 µM
SF-268 CNS
  GI50: 71.5 µM
  TGI: > 100 µM

## CCCCn1c2c(c3ccccc3c1=O)C(=O)c1ccccc1-2
HCT-15 colon
  TGI: > 100 µM
HOP-92 NSCLC
  TGI: > 100 µM
EKVX NSCLC
  TGI: > 100 µM
HCT-116 colon
  TGI: > 100 µM
SN12C renal
  TGI: > 100 µM
A549 NSCLC
  TGI: > 100 µM
BT-549 breast
  TGI: > 100 µM
CCRF-CEM leukemia
  TGI: > 100 µM
SNB-75 CNS
  TGI: > 100 µM
SF-268 CNS
  TGI: > 100 µM

## CC(CN)[C@@H]1CC[C@]2(CO)CC[C@]3(C)[C@H](CC[C@@H]4[C@@]5(C)CCC(NCCO)C(C)(C)[C@@H]5CC[C@]43C)[C@@H]12 (stereo not given in full)
HCT-15 colon
  GI50: 1.98 µM
  TGI: 3.97 µM
HOP-92 NSCLC
  GI50: 1.3 µM
  TGI: 2.94 µM
EKVX NSCLC
  GI50: 2.1 µM
  TGI: 5.01 µM
HCT-116 colon
  GI50: 1.66 µM
  TGI: 3.41 µM
SN12C renal
  GI50: 1.94 µM
  TGI: 3.61 µM
A549 NSCLC
  GI50: 1.68 µM
  TGI: 3.08 µM
BT-549 breast
  GI50: 3.77 µM
  TGI: 16.3 µM
CCRF-CEM leukemia
  GI50: 1.99 µM
  TGI: 5 µM
SNB-75 CNS
  GI50: 1.3 µM
  TGI: 3.12 µM
SF-268 CNS
  GI50: 1.75 µM
  TGI: 3.94 µM
